{"source": "patent US20120156771A1", "about": "“FUNCTIONAL DISRUPTION OF AN IMMUNOGLOBULIN GENE IN AN AVIAN EMBRYONIC STEM CELL” (Origen Therapeutics, Inc., priority 2002, published 2012)", "test_system": "chicken embryonic stem cells", "test": "Titration kill curve: morphology of cES cells under puromycin or neomycin selection", "assay_type": "cell-based", "parameters": "key to Morphology of cES cells: ES: ES cells are present.; diff: ES cells are differentiated.; gone: no morphologically recognizable cells are present", "protocol": "In a preferred embodiment, the concentration of puromycin required for selecting transfected cells is calculated as a titration kill curve. Titration kill curves for chicken embryonic stem cells are established by exposing cells in culture to puromycin concentrations varying from 0.0 to 1.0 μg/ml for 10 days (Table 7) and neomycin concentrations varying from 0.0 to 200 μg/ml (Table 8). The medium is changed every 2 days and fresh puromycin or neomycin is added. […] Puromycin concentrations of 0.3-1.0 μg/ml are used for selection of the transfected cultures. Neomycin concentrations over 40 μg/ml eliminated all cES cells within 7 days (Table 8).", "data": [{"compound": "COc1ccc(C[C@H](N)C(=O)N[C@H]2[C@@H](O)[C@H](n3cnc4c(N(C)C)ncnc43)O[C@@H]2CO)cc1", "note": "[puromycin]", "values": [{"measurement": "Presence of ES cells in wells", "setting": "0.3 μg/ml puromycin, after 3 changes of medium with fresh puromycin over a six day period", "result": "absent from all wells"}, {"measurement": "Morphology of cES cells", "setting": "puromycin 0.1 μg/ml, day 1 under selection", "result": "ES"}, {"measurement": "Morphology of cES cells", "setting": "puromycin 0.1 μg/ml, day 2 under selection", "result": "ES"}, {"measurement": "Morphology of cES cells", "setting": "puromycin 0.1 μg/ml, day 3 under selection", "result": "ES"}, {"measurement": "Morphology of cES cells", "setting": "puromycin 0.1 μg/ml, day 4 under selection", "result": "ES"}, {"measurement": "Morphology of cES cells", "setting": "puromycin 0.1 μg/ml, day 5 under selection", "result": "ES"}, {"measurement": "Morphology of cES cells", "setting": "puromycin 0.1 μg/ml, day 6 under selection", "result": "ES"}, {"measurement": "Morphology of cES cells", "setting": "puromycin 0.1 μg/ml, day 7 under selection", "result": "ES"}, {"measurement": "Morphology of cES cells", "setting": "puromycin 0.1 μg/ml, day 8 under selection", "result": "ES"}, {"measurement": "Morphology of cES cells", "setting": "puromycin 0.1 μg/ml, day 9 under selection", "result": "ES"}, {"measurement": "Morphology of cES cells", "setting": "puromycin 0.1 μg/ml, day 10 under selection", "result": "ES"}, {"measurement": "Morphology of cES cells", "setting": "puromycin 0.2 μg/ml, day 1 under selection", "result": "ES"}, {"measurement": "Morphology of cES cells", "setting": "puromycin 0.2 μg/ml, day 2 under selection", "result": "ES"}, {"measurement": "Morphology of cES cells", "setting": "puromycin 0.2 μg/ml, day 3 under selection", "result": "ES"}, {"measurement": "Morphology of cES cells", "setting": "puromycin 0.2 μg/ml, day 4 under selection", "result": "ES"}, {"measurement": "Morphology of cES cells", "setting": "puromycin 0.2 μg/ml, day 5 under selection", "result": "ES"}, {"measurement": "Morphology of cES cells", "setting": "puromycin 0.2 μg/ml, day 6 under selection", "result": "ES"}, {"measurement": "Morphology of cES cells", "setting": "puromycin 0.2 μg/ml, day 7 under selection", "result": "ES"}, {"measurement": "Morphology of cES cells", "setting": "puromycin 0.2 μg/ml, day 8 under selection", "result": "ES"}, {"measurement": "Morphology of cES cells", "setting": "puromycin 0.2 μg/ml, day 9 under selection", "result": "ES"}, {"measurement": "Morphology of cES cells", "setting": "puromycin 0.2 μg/ml, day 10 under selection", "result": "ES"}, {"measurement": "Morphology of cES cells", "setting": "puromycin 0.25 μg/ml, day 1 under selection", "result": "ES"}, {"measurement": "Morphology of cES cells", "setting": "puromycin 0.25 μg/ml, day 2 under selection", "result": "ES"}, {"measurement": "Morphology of cES cells", "setting": "puromycin 0.25 μg/ml, day 3 under selection", "result": "ES"}, {"measurement": "Morphology of cES cells", "setting": "puromycin 0.25 μg/ml, day 4 under selection", "result": "ES"}, {"measurement": "Morphology of cES cells", "setting": "puromycin 0.25 μg/ml, day 5 under selection", "result": "ES"}, {"measurement": "Morphology of cES cells", "setting": "puromycin 0.25 μg/ml, day 6 under selection", "result": "diff"}, {"measurement": "Morphology of cES cells", "setting": "puromycin 0.25 μg/ml, day 7 under selection", "result": "diff"}, {"measurement": "Morphology of cES cells", "setting": "puromycin 0.3 μg/ml, day 1 under selection", "result": "ES"}, {"measurement": "Morphology of cES cells", "setting": "puromycin 0.3 μg/ml, day 2 under selection", "result": "ES"}, {"measurement": "Morphology of cES cells", "setting": "puromycin 0.3 μg/ml, day 3 under selection", "result": "diff"}, {"measurement": "Morphology of cES cells", "setting": "puromycin 0.3 μg/ml, day 6 under selection", "result": "gone"}, {"measurement": "Morphology of cES cells", "setting": "puromycin 0.3 μg/ml, day 7 under selection", "result": "gone"}, {"measurement": "Morphology of cES cells", "setting": "puromycin 0.3 μg/ml, day 8 under selection", "result": "gone"}, {"measurement": "Morphology of cES cells", "setting": "puromycin 0.3 μg/ml, day 9 under selection", "result": "gone"}, {"measurement": "Morphology of cES cells", "setting": "puromycin 0.3 μg/ml, day 10 under selection", "result": "gone"}, {"measurement": "Morphology of cES cells", "setting": "puromycin 0.4 μg/ml, day 1 under selection", "result": "ES"}, {"measurement": "Morphology of cES cells", "setting": "puromycin 0.4 μg/ml, day 2 under selection", "result": "diff"}, {"measurement": "Morphology of cES cells", "setting": "puromycin 0.4 μg/ml, day 3 under selection", "result": "gone"}, {"measurement": "Morphology of cES cells", "setting": "puromycin 0.4 μg/ml, day 4 under selection", "result": "gone"}, {"measurement": "Morphology of cES cells", "setting": "puromycin 0.4 μg/ml, day 5 under selection", "result": "gone"}, {"measurement": "Morphology of cES cells", "setting": "puromycin 0.4 μg/ml, day 6 under selection", "result": "gone"}, {"measurement": "Morphology of cES cells", "setting": "puromycin 0.4 μg/ml, day 7 under selection", "result": "gone"}, {"measurement": "Morphology of cES cells", "setting": "puromycin 0.4 μg/ml, day 8 under selection", "result": "gone"}, {"measurement": "Morphology of cES cells", "setting": "puromycin 0.4 μg/ml, day 9 under selection", "result": "gone"}, {"measurement": "Morphology of cES cells", "setting": "puromycin 0.4 μg/ml, day 10 under selection", "result": "gone"}, {"measurement": "Morphology of cES cells", "setting": "puromycin 0.5 μg/ml, day 1 under selection", "result": "diff"}, {"measurement": "Morphology of cES cells", "setting": "puromycin 0.5 μg/ml, day 2 under selection", "result": "gone"}, {"measurement": "Morphology of cES cells", "setting": "puromycin 0.5 μg/ml, day 3 under selection", "result": "gone"}, {"measurement": "Morphology of cES cells", "setting": "puromycin 0.5 μg/ml, day 4 under selection", "result": "gone"}, {"measurement": "Morphology of cES cells", "setting": "puromycin 0.5 μg/ml, day 5 under selection", "result": "gone"}, {"measurement": "Morphology of cES cells", "setting": "puromycin 0.5 μg/ml, day 6 under selection", "result": "gone"}, {"measurement": "Morphology of cES cells", "setting": "puromycin 0.5 μg/ml, day 7 under selection", "result": "gone"}, {"measurement": "Morphology of cES cells", "setting": "puromycin 0.5 μg/ml, day 8 under selection", "result": "gone"}, {"measurement": "Morphology of cES cells", "setting": "puromycin 0.5 μg/ml, day 9 under selection", "result": "gone"}, {"measurement": "Morphology of cES cells", "setting": "puromycin 0.5 μg/ml, day 10 under selection", "result": "gone"}, {"measurement": "Morphology of cES cells", "setting": "puromycin 0.6 μg/ml, day 1 under selection", "result": "diff"}, {"measurement": "Morphology of cES cells", "setting": "puromycin 0.6 μg/ml, day 2 under selection", "result": "gone"}, {"measurement": "Morphology of cES cells", "setting": "puromycin 0.6 μg/ml, day 3 under selection", "result": "gone"}, {"measurement": "Morphology of cES cells", "setting": "puromycin 0.6 μg/ml, day 4 under selection", "result": "gone"}, {"measurement": "Morphology of cES cells", "setting": "puromycin 0.6 μg/ml, day 5 under selection", "result": "gone"}, {"measurement": "Morphology of cES cells", "setting": "puromycin 0.6 μg/ml, day 6 under selection", "result": "gone"}, {"measurement": "Morphology of cES cells", "setting": "puromycin 0.6 μg/ml, day 7 under selection", "result": "gone"}, {"measurement": "Morphology of cES cells", "setting": "puromycin 0.6 μg/ml, day 8 under selection", "result": "gone"}, {"measurement": "Morphology of cES cells", "setting": "puromycin 0.6 μg/ml, day 9 under selection", "result": "gone"}, {"measurement": "Morphology of cES cells", "setting": "puromycin 0.6 μg/ml, day 10 under selection", "result": "gone"}, {"measurement": "Morphology of cES cells", "setting": "puromycin 0.7 μg/ml, day 1 under selection", "result": "diff"}, {"measurement": "Morphology of cES cells", "setting": "puromycin 0.7 μg/ml, day 2 under selection", "result": "gone"}, {"measurement": "Morphology of cES cells", "setting": "puromycin 0.7 μg/ml, day 3 under selection", "result": "gone"}, {"measurement": "Morphology of cES cells", "setting": "puromycin 0.7 μg/ml, day 4 under selection", "result": "gone"}, {"measurement": "Morphology of cES cells", "setting": "puromycin 0.7 μg/ml, day 5 under selection", "result": "gone"}, {"measurement": "Morphology of cES cells", "setting": "puromycin 0.7 μg/ml, day 6 under selection", "result": "gone"}, {"measurement": "Morphology of cES cells", "setting": "puromycin 0.7 μg/ml, day 7 under selection", "result": "gone"}, {"measurement": "Morphology of cES cells", "setting": "puromycin 0.7 μg/ml, day 8 under selection", "result": "gone"}, {"measurement": "Morphology of cES cells", "setting": "puromycin 0.7 μg/ml, day 9 under selection", "result": "gone"}, {"measurement": "Morphology of cES cells", "setting": "puromycin 0.7 μg/ml, day 10 under selection", "result": "gone"}, {"measurement": "Morphology of cES cells", "setting": "puromycin 0.8 μg/ml, day 1 under selection", "result": "gone"}, {"measurement": "Morphology of cES cells", "setting": "puromycin 0.8 μg/ml, day 2 under selection", "result": "gone"}, {"measurement": "Morphology of cES cells", "setting": "puromycin 0.8 μg/ml, day 3 under selection", "result": "gone"}, {"measurement": "Morphology of cES cells", "setting": "puromycin 0.8 μg/ml, day 4 under selection", "result": "gone"}, {"measurement": "Morphology of cES cells", "setting": "puromycin 0.8 μg/ml, day 5 under selection", "result": "gone"}, {"measurement": "Morphology of cES cells", "setting": "puromycin 0.8 μg/ml, day 6 under selection", "result": "gone"}, {"measurement": "Morphology of cES cells", "setting": "puromycin 0.8 μg/ml, day 7 under selection", "result": "gone"}, {"measurement": "Morphology of cES cells", "setting": "puromycin 0.8 μg/ml, day 8 under selection", "result": "gone"}, {"measurement": "Morphology of cES cells", "setting": "puromycin 0.8 μg/ml, day 9 under selection", "result": "gone"}, {"measurement": "Morphology of cES cells", "setting": "puromycin 0.8 μg/ml, day 10 under selection", "result": "gone"}]}]}
